These results are taken from ChEMBL document CHEMBL1132601, “Design, synthesis, and structure-activity relationships of acetylene-based histamine H3 receptor antagonists” (J Med Chem, 1999).

One may read the pKi as −log10 of the Ki, conventionally taken in molar units. A higher pKi goes with a small Ki.

The assay concerns the target Histamine H3 receptor (Rattus norvegicus, UniProt Q9QYN8). Nature of the assay: Binding affinity at histamine H3 receptor in rat cortical membranes by [3H]Nalpha-methylhistamine displacement. It counts as cell membranes.

pKi: −log10 of the molar value.

Chain of Histamine H3 receptor (Q9QYN8 whole entry): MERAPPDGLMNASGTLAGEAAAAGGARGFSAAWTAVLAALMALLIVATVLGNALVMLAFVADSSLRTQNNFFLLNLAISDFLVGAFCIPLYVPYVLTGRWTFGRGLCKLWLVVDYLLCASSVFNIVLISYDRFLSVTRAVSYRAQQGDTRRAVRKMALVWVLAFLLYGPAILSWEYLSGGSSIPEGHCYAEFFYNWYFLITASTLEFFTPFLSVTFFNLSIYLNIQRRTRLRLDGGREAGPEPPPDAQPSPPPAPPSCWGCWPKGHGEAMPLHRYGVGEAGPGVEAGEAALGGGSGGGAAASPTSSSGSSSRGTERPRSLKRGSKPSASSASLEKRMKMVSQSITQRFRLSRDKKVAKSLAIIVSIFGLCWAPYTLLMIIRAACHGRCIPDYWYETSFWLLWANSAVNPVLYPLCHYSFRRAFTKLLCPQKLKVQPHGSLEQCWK

Consider `CCCC#CC1CC1c1c[nH]cn1` (stereo not drawn), for which the pKi was 8.29.
`C(#CCCC1CCCC1)CCc1c[nH]cn1` gave a negative logarithm of the Ki (pKi) of 9.05.
For the compound `CC(C)(C)CCC#C[C@@H]1C[C@H]1c1c[nH]cn1` [CIPRALISANT], the pKi was 9.92.
